≈ marks a conversion by molar mass, not a printed value. Calls of active or inactive are those of the source. The rule behind the calls is not given here.
Tests used:
Candida albicans = test: Antifungal activity against Candida albicans after 16 hrs by serial dilution method; assay type: functional
HCT-116 [1] = test: Cytotoxicity against human HCT116 cells assessed as cell viability at 100 ug/mL after 5 days by MTT assay relative to control; assay type: functional, cell-based
HCT-116 [2] = test: Cytotoxicity against human HCT116 cells assessed as cell viability after 5 days by MTT assay relative to control; assay type: functional, cell-based; conditions: HCT-116, 120 h

Row | Compound | Activity (Candida albicans) | Activity (HCT-116 [1]) | MIC (Candida albicans) [µg/mL] | IC50 (HCT-116 [2]) [nM]
1 | CCCCCCC/C=C/C=C/C(=O)N[C@H](C(=O)N[C@@H](CCCCN)C(=O)N[C@@H](C)C(O)CC(=O)O)[C@@H](C)O (stereo partly specified) | inactive | inactive | – | –
2 | CCCCCCC/C=C/C=C/C(=O)N[C@H](C(=O)N[C@H]1C[C@@H](O)CCNC(=O)/C=C/[C@H](C)NC1=O)[C@@H](C)O [GLIDOBACTIN A] | – | – | 2 (≈ 3.84 µM) | 33.3
3 | CCCCCCC/C=C/C=C/C(=O)N[C@H](C(=O)N[C@H]1CCCCNC(=O)/C=C/[C@H](C)NC1=O)[C@@H](C)O [LUMINMYCIN A] | inactive | – | – | 91.8

— ChEMBL document CHEMBL2146428, “Luminmycins A-C, cryptic natural products from Photorhabdus luminescens identified by heterologous expression in Escherichia coli” (J Nat Prod, 2012)
